Measurements reported in ChEMBL document CHEMBL1157996, “Guttiferone F, the first prenylated benzophenone from Allanblackia stuhlmannii” (J Nat Prod, 1999).
In brackets after ≈: the same amount, converted by molar mass.

Tested on: Human immunodeficiency virus 1
Assay: Antiviral activity against HIV1 assessed as protection against virus-induced cytopathogenicity
Assay type: functional, organism-based

EC50: 23 µg/mL (≈ 38.2 µM)
Structure (SMILES): C=C(C)[C@H](CC=C(C)C)C[C@@]12C[C@@H](CC=C(C)C)C(C)(C)[C@@](CC=C(C)C)(C(=O)C(C(=O)c3ccc(O)c(O)c3)=C1O)C2=O [GUTTIFERONE F]
